In patent US20140199714A1, “METHOD FOR DETECTING CANCER CELLS METASTASIZING INTO SENTINEL LYMPH NODE” (SHINSHU UNIVERSITY, priority 2008, published 2014):

Experiments:
Type in all cases: cell-based
[1] = system: E-selectin on human LECs; assay: Immunohistochemical expression of E-selectin on cultured human LECs
Method: (§1) Using an indirect immunohistochemical technique, the inventors examined the effects of the supernatants of culture medium of two kinds of carcinoma cells, MDA-MB-231 and MCF-7, on the expression of adhesion molecules such as E-selectin, P-selectin, vascular cell adhesion molecule (VCAM)-1, and intercellular adhesion molecule (ICAM)-1 on the human LECs. The carcinoma cells were plated in DMEM/F12 with 10% FBS, which was replaced the following day with DMEM/F12 with 3% FBS, and then collected after overnight culture. The collected solution was centrifuged at 2,000 rpm for 5 min. at 4° C. To examine the effects of the supernatants on the expression of the adhesion molecules on the human LECs, 1 mL of each collected solution was added to starvation culture medium, EBM-2 with 3% FBS of the human LECs, and then stimulated for 48 hrs. on the cells. In some experiments, the supernatant solutions at different concentrations (1/100 or 1/10,000 dilution) were constructed with appropriate volumes of DMEM/F12 with 3% FBS.
(§2) Indirect immunohistochemical studies were performed on the cultured LECs seeded or glass slides coated with type I collagen, and then the cells were fixed with 3.3% formalin in phosphate-buffered saline solution (PBS), for 20 min. at room temperature. The cells were washed three times with PBS, and then incubated overnight at 4° C. with primary polyclonal human antisera to E-selectin/CD62E (dilution 10 μg/mL, available from R&D Systems, US), P-selectin/CD62P (dilution 10 μg/mL, available from R&D Systems, US), VCAM-1/CD106 (dilution 10 μg/mL, available from R&D Systems, US), and ICAM-1/CD54 (dilution 10 μg/mL, available from R&D Systems, US).
(§3) Before primary staining, the cultured cells were permeabilized with 0.1% TRITON-X. After washing three times in PBS, the cells were incubated for 1 hr. at room temperature with 1:100 diluted ALEXA FLUOR 488 donkey anti-mouse IgG (available from Invitrogen, US). The nuclei of cultured cells were counter-stained and mounted with PROLONG GOLD antifade reagent with 4′-6-diamidine-2-phenylindole (DAPI) (available from Molecular Probes, US), examined by a fluorescent microscope (Leica, Switzerland), and photographed.
(§4) Immunohistochemistry was performed on the cultured human LECs or the fresh-frozen SLNs isolated from the breast cancer patients. In brief, the cultured LECs were fixed with 10% formalin in the phosphate-buffered saline solution (PBS) at room temperature. The cells were incubated for 4 hrs. at room temperature with primary polyclonal human antisera platelet-endothelial cell adhesion molecule (PECAM)-1 (dilution 1:100, available from BD Biosciences, US), lymphatic vessel endothelial hyaluronan receptor (LYVE)-1 (dilution 1:50, available from RELIATech, Germany), PROX-1 (dilution 1:50, available from AngioBio, US), podoplanin (dilution 1:50, available from AngioBio, US), vascular endothelium growth factor receptor 3 (VEGF R3) (dilution 1:50, available from Santa Cruz, US), E-selectin/CD62E (dilution 1:50, available from R&D systems, US), P-selectin/CD62P (dilution 1:50, available from R&D systems, US), vascular cell adhesion molecule (VCAM)-1/CD106 (dilution 1:50, available from R&D systems, US), and intercellular adhesion molecule (ICAM)-1/CD54 (dilution 1:50, available from R&D systems, US). Before the staining, permeabilization of the cultured cells with 0.1% TRITON-X was performed. Then, the cells were stained using the following antibodies: ALEXA FLUOR 488 chicken anti-rabbit IgG or ALEXA FLUOR 488 donkey anti-mouse IgG (available from Invitrogen, US). The nuclei of the cultured cells were counter-stained and mounted with ProLong Gold antifade reagent with 4′-6-diamidine-2-phenylindole (DAPI) (available from Molecular Probes, US). The cultured cells were examined by a fluorescent microscope (available from Leica, Germany) and photographed. […]

[2] = system: VCAM-1 on human LECs; assay: Immunohistochemical expression of VCAM-1 on cultured human LECs
Method: as §1, §2, §3, §4

[3] = system: attachment of MCF-7 carcinoma cells to human LECs; assay: In vitro human LECs attachment assay (CCL2), MCF-7; settings: 18 hrs.-stimulation of 10 ng/mL CCL2 vs negative control with DMEM/F12; p<0.01
Method: The human LECs were plated to form a monolayer on type I collagen-coated 35 mm plates and incubated to confluence in 5% O2, 5% CO2, and 90% N2 at 37° C. The LECs were kept in serum-starved medium containing EBM-2 with 3% FBS. Selected plates were treated with 10 ng/mL CCL2 for 18 hrs. In some experiments, the plates were stimulated by the serum-starved medium pretreated with neutralization of 10 ng/mL CCL2 with 1.0 μg/mL CCL2 specific antibody.
In some experiments, the plates were also treated with anti-human ICAM-1 antibody (available from R&D systems, US) for 30 min. after the 18 hrs. treatment with 10 ng/mL CCL2.
The two kinds of the breast carcinoma cells such as MDA-MB-231 and MCF-7 stained with PKH26 fluorescent dye (available from SIGMA, US) were then plated at 1×10^5 cells per plate and incubated for 30 min. at 37° C. Unbound cells were removed by aspiration, and the plates were washed with EBM-2 three times. The attachment of the carcinoma cells was quantified by counting the number of cells under ×100 magnification using a Leica microscope.

[4] = system: ICAM-1 on human LECs; assay: Immunohistochemical expression of ICAM-1 on cultured human LECs
[5] = 4 hrs-stimulation of 10 ng/mL CCL2
[6] = 18 hrs.-stimulation with 10 ng/mL chemokine

With CCL2: chemokine CCL2 the “immunoreaction of anti-E-selectin” value ([1]; 10 ng/mL CCL2, stimulation time increased to 18 hrs. and 48 hrs.) was “markedly decreased”, the “staining with E-selectin antiserum on LECs” value [1, 5] was “Slight staining” and the “expression of E-selectin on human LECs” value [1, 6] was “Little or no expression”. The “expression of VCAM-1 on human LECs” value [2, 5] was “no or little expression”, the “expression of VCAM-1 on human LECs” value [2, 6] was “Little or no expression” and the “in vitro attachment of MCF-7 to human LECs” value [3] was “significant increase”. The “intensity of the immunoreactivity for ICAM-1” value ([4]; 10 ng/mL CCL2, stimulation time of 18 hrs. only) was “significantly increased”, the “contrast-density of ICAM-1 staining (mean density/pixel)” value ([4]; 10 ng/mL CCL2 vs negative control, p<0.01, n=5) was “increases significantly” and the “expression of ICAM-1 on human LECs” value [4, 5] was “marked expression”. The “expression of ICAM-1 on human LECs” value [4, 6] was “marked expression”, the “expression of ICAM-1 on human LECs” value ([4]; 18 hrs.-stimulation, 10 pg/mL CCL2) was “slight, but significant, expression” and the “expression of ICAM-1 on human LECs” value ([4]; 18 hrs.-stimulation, 1 ng/mL or 10 ng/mL of CCL2) was “marked expression”.
